Values quoted from earlier work as cited in patent publication US20030133872A1, “Radiopharmaceutical agent for the treatment of early stage cancer” (priority 2001, published 2003).

Details: Woolfenden et al., Int. J. Nucl. Med. 10 (4), 251-256 (1983)

## [153Sm+3].[Cl-].[Cl-].[Cl-] [^153Sm-chloride]
  liver uptake: high liver uptake
